# Experimental data published in US7378427B2, “Processes for preparing 6-alkyl-5-arylsulfonyl-dihydrophenanthridines” (Wyeth, priority 2004, dated 2008).
# Tests used:
# C57BL/6 mice = assay: Uterine wet weight increase in ovariectomized C57BL/6 mice; type: in vivo; details: EE 0.01 mg/kg/day, test compound 10 mg/kg/day, gavage once daily for 5 weeks, compared to vehicle control
# Experimental: Ovariectomized C57BL/6 mice (16-20 g) (Taconic) were separated into groups of 8. After 5-7 days of recuperation, the mice were fed a chow diet or an atherogenic diet (15.75% fat, 1.25% cholesterol and 0.5% sodium cholate) (Purina diet #21539). EE or test compound was administered once daily by gavage in a methylcellulose/tween vehicle (0.1 ml per mouse) for 5 weeks. At the end of the experimental period, the liver was collected and uterine wet weight was recorded.
# IL-6 = assay: HAECT-1 IL-6 expression assay (ELISA) in Ad5-wt-ER infected cells (IL-1β induced); type: cell-based, human; details: Ad5-wt-ER infected HAECT-1 cells; for IC50: IL-1β, IL-6 ELISA; for IL-6 Efficacy: relative to the maximal inhibition observed with E2
# Experimental: (§1) T-175 flasks of 100% confluent HAECT-1 cells (immortalized human aortic endothelial cells) were washed with 8 mL of HBSS (HEPES buffered saline solution) and infected for four hours with 6 mL of a 1:10 dilution of Ad5-wt-hERα virus (an adenovirus transfection vector that mediates CMV promoter driven expression of human ERα) in phenol red free Endothelial Cell Basal medium (Clonetics, San Diego Calif., Catalog #CC-3129) containing 0.25% bovine serum albumin (EBM-BSA). After four hours, the cells were washed with EBM-BSA and incubated overnight in the same medium. Following overnight incubation, the cells were washed with EBM-BSA and infected for 2 hours with 6 mL of a 1:10 dilution of Ad5-3×(NFκB). Luc virus (Adenovirus luciferase expression vector driven by 3 repeats of the MHC NFκb site 5′ to the thymidine kinase promoter) in EBM-BSA. After two hours, the cells were washed and incubated at 34° C. for 1 hour. The cells were then washed, trypsinized, counted and resuspended in 95% FBS/5% dimethylsulfoxide at a concentration of 4×10^6 cells/mL, frozen as 1 or 5 mL aliquots in cryo-vials and stored at −150° C. Control (no ER infection) cells were processed as above without Ad5-wt-hERα virus infection.
# ERα infected HAECT-1 cells or control cells were thawed, diluted 42× in warm EBM-BSA, plated into 96-well plates at 0.1 mL/well and incubated for 4 h at 34° C. Test compounds were added to the cells as 2× stocks in EBM-BSA containing 2 ng/mL IL-1β (R&D Systems) and plates were returned to the incubator (34° C.). After 15-20 h, 100 μL aliquots of media were removed from the cells and assayed for IL-6 content using a BioSource human IL-6 ELISA Kit. Cells were subsequently washed with 300 μL of Dulbecco's phosphate buffered saline and lysed in 50 μL of Cell Culture Lysis Reagent (Promega). Luciferase was determined on a Wallac Victor^2 Luminometer (Gaithersburg, Md.) using 10 μL of lysate and mixing with 100 μL of Promega Luciferase Assay reagent. Creatine kinase was determined from the rate of increase in A340 following addition of 100 μL of CK assay reagent (Sigma, cat. No 47-10) to the remainder of the cell lysate.
# (§2) For IC50 and EC50 calculations, mean IL-6, luciferase or CK values versus log10 of the compound concentration were fitted to a four parameter logistic equation. The IC50/EC50 value, ‘Hill slope’, upper and lower limits of the curve were iteratively estimated.
# NF-κB = assay: HAECT-1 NF-κB luciferase reporter assay in Ad5-wt-ER infected cells (IL-1β induced); type: cell-based, human; details: Ad5-wt-ER infected HAECT-1 cells
# Experimental: Control (no ER infection) cells were processed as above without Ad5-wt-hERα virus infection.
# Cells were subsequently washed with 300 μL of Dulbecco's phosphate buffered saline and lysed in 50 μL of Cell Culture Lysis Reagent (Promega). Luciferase was determined on a Wallac Victor^2 Luminometer (Gaithersburg, Md.) using 10 μL of lysate and mixing with 100 μL of Promega Luciferase Assay reagent. Creatine kinase was determined from the rate of increase in A340 following addition of 100 μL of CK assay reagent (Sigma, cat. No 47-10) to the remainder of the cell lysate.
# as §2
# creatine kinase (CK) = assay: HAECT-1 creatine kinase (CK) expression assay in Ad5-wt-ER infected cells; type: cell-based, human; details: relative to the maximal stimulation observed with E2; Ad5-wt-ER infected HAECT-1 cells
# Experimental: as §1, with “Luc virus (Adenovirus luciferase expression vector driven by 3 repeats of the MHC NFκb site 5′ to the thymidine kinase promoter) in EBM-BSA. After two hours, the cells were washed and incubated at 34° C. for 1 hour.” left out, “Control (no ER infection) cells were processed as above without Ad5-wt-hERα virus infection.” left out
# ERα infected HAECT-1 cells or control cells were thawed, diluted 42× in warm EBM-BSA, plated into 96-well plates at 0.1 mL/well and incubated for 4 h at 34° C. […] Luciferase was determined on a Wallac Victor^2 Luminometer (Gaithersburg, Md.) using 10 μL of lysate and mixing with 100 μL of Promega Luciferase Assay reagent. Creatine kinase was determined from the rate of increase in A340 following addition of 100 μL of CK assay reagent (Sigma, cat. No 47-10) to the remainder of the cell lysate. […]
smiles,measurement,setting,value
"C#C[C@]1(O)CC[C@H]2[C@@H]3CCc4cc(O)ccc4[C@H]3CC[C@@]21C [EE, reference compound]","Uterine Wet Weight Increase, Efficacy (%)",C57BL/6 mice,100%
same,"Uterine Wet Weight Increase, Fold Increase",C57BL/6 mice,5.0
"C[C@H]1c2cc(F)ccc2-c2ccccc2N1S(=O)(=O)c1ccc(O)cc1 [Example 8, 4-[(S)-8-Fluoro-6-methyl-6H-phenanthridine-5-sulfonyl]-phenol]",melting point,,193 °C
same,IC50,"IL-6; Homo sapiens, HAECT1",303 nM
same,IL-6 Efficacy,IL-6,118%
same,IC50,"NF-κB; Homo sapiens, HAECT1, IL-1β, luciferase reporter",59 nM
same,NF-κB Efficacy,NF-κB; relative to the maximal inhibition observed with E2,99%
same,"Uterine Wet Weight Increase, Efficacy (%)",C57BL/6 mice,0%
same,"Uterine Wet Weight Increase, Fold Increase",C57BL/6 mice,0
"C[C@H]1c2cc(F)ccc2-c2ccccc2N1S(=O)(=O)c1ccc(OS(N)(=O)=O)cc1 [Example 22, 4-{[(6S)-8-Fluoro-6-methylphenanthridin-5(6H)-yl]sulfonyl}phenyl sulfamate]",melting point,,165.5 to 167.3 °C
"C[C@]12CC[C@@H]3c4ccc(O)cc4CC[C@H]3[C@@H]1CC[C@@H]2O [Example E2, 17-β-estradiol, reference compound]",IC50,IL-6,1.7 nM
same,IL-6 Efficacy,IL-6,100%
same,CK Efficacy,creatine kinase (CK),100%
